Experimental data published in ChEMBL document CHEMBL1201862, “PubChem BioAssay data set” (2004).
Active and inactive are the calls of the source.

Tests used:
[1] = molecular target: Voltage-dependent T-type calcium channel subunit alpha-1H (Homo sapiens, UniProt O95180); assay: Cav3.2 T-type channel inhibitors, cell-based, synthetic library set 1, calcium flux (AID 493022); assay type: functional
[2] = molecular target: T1, Short transient receptor potential channel 4 (Mus musculus, UniProt Q9QUQ5); assay: TRPC4 positive allosteric modulators, dose response, cell-based, HEK293 TRPC4/mu-opioid, Fluo-4 calcium, EC20 DAMGO (AID 434941); assay type: functional
T1 sequence (Q9QUQ5 whole entry): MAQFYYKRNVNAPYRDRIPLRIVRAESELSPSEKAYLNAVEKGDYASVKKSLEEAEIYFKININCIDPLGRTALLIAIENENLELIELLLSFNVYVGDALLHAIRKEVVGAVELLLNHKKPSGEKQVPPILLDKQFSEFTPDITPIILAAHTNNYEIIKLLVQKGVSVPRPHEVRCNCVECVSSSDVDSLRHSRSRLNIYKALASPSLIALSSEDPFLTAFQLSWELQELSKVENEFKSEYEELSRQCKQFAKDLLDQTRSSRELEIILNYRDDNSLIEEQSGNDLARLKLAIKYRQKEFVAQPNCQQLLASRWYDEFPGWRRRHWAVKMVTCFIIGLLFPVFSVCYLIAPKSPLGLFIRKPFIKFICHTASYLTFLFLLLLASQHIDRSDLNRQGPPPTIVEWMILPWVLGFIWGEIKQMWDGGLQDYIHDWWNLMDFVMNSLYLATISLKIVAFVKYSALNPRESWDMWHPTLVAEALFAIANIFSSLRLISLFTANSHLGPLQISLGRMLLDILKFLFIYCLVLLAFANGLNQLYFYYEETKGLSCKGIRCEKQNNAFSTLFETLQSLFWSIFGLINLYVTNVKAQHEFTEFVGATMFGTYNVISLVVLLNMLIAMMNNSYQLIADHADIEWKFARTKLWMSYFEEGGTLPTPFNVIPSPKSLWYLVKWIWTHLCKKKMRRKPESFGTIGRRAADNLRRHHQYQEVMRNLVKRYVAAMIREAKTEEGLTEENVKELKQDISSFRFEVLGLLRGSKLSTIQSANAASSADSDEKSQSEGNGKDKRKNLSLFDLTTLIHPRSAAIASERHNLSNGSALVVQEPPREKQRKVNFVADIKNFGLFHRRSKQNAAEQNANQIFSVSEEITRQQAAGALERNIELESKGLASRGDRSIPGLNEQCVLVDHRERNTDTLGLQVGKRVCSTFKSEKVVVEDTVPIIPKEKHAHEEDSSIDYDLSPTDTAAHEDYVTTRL

HEK293 [3] = assay: NOD2 signaling inhibitors in MDP-stimulated cells, cell-based, uHTS, luminescence (AID 2001); assay type: functional; details: Homo sapiens
[4] = C. albicans growth with fluconazole, confirmation, fluorescence, retest (AID 2467); assay type: functional, cell-based
HEK293 [5] = assay: cells; assay type: functional, cell-based; details: Homo sapiens
[6] = molecular target: Nucleotide-binding oligomerization domain-containing protein 2 (Homo sapiens, UniProt Q9HC29); assay: NOD2 signaling inhibitors, cell-based, luminescence, uHTS, HEK293 (AID 1566); assay type: functional
HEK293 [7] = assay: NOD1 signaling inhibitors, primary screen, cell-based, luminescence, uHTS (AID 1578); assay type: functional; details: Homo sapiens
HEK293 [8] = assay: cells; assay type: functional, cell-based; details: Homo sapiens; remark: listed apart in the source
INS1 = assay: beta cell apoptosis inhibitors, cytokine rescue, dose response, luminescence, retest (AID 449756); assay type: functional, cell-based; details: Rattus norvegicus, INS1;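 also: cell death triggered by IL-1 beta plus TNF-alpha plus IFN-gamma mixture; protective hits raise ATP signal compared with cytokine alone wells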
[9] = cytotoxicity in HEK-293T cells, dose response, cytotoxicity control for BCR NF-kB inhibitor project, luminescence, B-cell screen hits (AID 489021); assay type: functional, cell-based;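 also: HEK-293T cells carrying an NF-kB luciferase reporter; cells exposed to compound for about 14 hours before viability readout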
HEK293 [10] = assay: cells; assay type: functional, cell-based; details: Homo sapiens; remark: listed apart in the source
[11] = NIH-3T3 fibroblast cytotoxicity, dose response, cytotoxicity control, cell-based, fluorescence, Alamar Blue, secondary assay (AID 2327); assay type: functional;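 also: NIH-3T3 mouse fibroblasts cultured with fluconazole at 8 µg/mL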
Protein RecA = molecular target: T2, Protein RecA (Mycobacterium tuberculosis, UniProt P9WHJ3); assay: Fluorescence Cell-Free Homogeneous Dose Retest to Identify Inhibitors of RecA-Intein Splicing Activity. [Related pubchem assays (depositor defined):AID2097, AID2223, AID489010, AID492950]; assay type: functional
T2 sequence (P9WHJ3 whole entry): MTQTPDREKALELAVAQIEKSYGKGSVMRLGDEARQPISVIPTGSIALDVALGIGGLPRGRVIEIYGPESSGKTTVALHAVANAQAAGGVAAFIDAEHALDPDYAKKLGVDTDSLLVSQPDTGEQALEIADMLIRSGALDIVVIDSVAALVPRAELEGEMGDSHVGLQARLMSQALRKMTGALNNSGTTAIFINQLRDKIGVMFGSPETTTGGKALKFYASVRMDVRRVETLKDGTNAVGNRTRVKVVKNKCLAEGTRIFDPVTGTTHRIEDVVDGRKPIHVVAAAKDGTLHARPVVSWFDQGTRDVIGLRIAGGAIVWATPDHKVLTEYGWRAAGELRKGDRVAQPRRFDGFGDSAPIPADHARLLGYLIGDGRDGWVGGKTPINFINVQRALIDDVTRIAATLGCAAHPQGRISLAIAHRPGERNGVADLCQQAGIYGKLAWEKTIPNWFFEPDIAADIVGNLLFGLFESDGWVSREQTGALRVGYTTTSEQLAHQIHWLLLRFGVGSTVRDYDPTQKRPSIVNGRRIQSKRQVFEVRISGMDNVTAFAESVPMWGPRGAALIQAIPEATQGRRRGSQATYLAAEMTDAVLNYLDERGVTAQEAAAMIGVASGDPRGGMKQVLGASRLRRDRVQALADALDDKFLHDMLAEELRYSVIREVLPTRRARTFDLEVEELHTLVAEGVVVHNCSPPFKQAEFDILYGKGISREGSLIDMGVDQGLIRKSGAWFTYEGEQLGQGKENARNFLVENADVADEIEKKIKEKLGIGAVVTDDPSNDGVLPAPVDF

[12] = molecular target: T3, High affinity choline transporter 1 (Homo sapiens, UniProt Q9GZV3); assay: CHT inhibitors, dose response, cell-based, 5-point CRC, membrane potential dye (AID 504840); assay type: functional
T3 sequence (Q9GZV3 whole entry): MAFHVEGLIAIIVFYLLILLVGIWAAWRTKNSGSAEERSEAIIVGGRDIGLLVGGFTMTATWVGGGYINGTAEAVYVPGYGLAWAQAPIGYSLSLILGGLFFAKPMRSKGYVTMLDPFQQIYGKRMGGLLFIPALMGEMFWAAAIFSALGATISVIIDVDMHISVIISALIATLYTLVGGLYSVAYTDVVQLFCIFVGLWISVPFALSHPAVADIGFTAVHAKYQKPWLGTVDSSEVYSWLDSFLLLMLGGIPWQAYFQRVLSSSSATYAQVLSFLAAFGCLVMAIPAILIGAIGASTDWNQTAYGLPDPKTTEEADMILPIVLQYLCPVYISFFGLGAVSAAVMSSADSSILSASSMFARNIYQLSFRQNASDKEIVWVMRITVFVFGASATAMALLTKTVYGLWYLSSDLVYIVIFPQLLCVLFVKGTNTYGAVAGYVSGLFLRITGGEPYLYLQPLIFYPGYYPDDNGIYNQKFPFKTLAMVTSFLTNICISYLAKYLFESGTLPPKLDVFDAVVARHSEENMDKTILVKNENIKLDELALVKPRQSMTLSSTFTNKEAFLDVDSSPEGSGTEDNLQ

SUMO-activating enzyme [13] = molecular target: T4, SUMO-activating enzyme (Homo sapiens, UniProt Q9UBT2); assay: inhibitors of in vitro SUMOylation cascade, primary screen, biochemical, HTRF, uHTS (AID 2006); assay type: protein-complex assay
SUMO-activating enzyme [14] = molecular target: T4, SUMO-activating enzyme; assay: SUMOylation inhibitor hit validation, confirmation, SUMOylation inhibitor project, biochemical, AlphaScreen (AID 2018); assay type: functional
[15] = molecular target: T5, Replicative DNA helicase DnaB (Mycobacterium tuberculosis, UniProt P9WMR3); assay: DnaB intein splicing inhibitors, dose response, biochemical, cell-free fluorescence (AID 449749); assay type: functional
T5 sequence (P9WMR3 whole entry): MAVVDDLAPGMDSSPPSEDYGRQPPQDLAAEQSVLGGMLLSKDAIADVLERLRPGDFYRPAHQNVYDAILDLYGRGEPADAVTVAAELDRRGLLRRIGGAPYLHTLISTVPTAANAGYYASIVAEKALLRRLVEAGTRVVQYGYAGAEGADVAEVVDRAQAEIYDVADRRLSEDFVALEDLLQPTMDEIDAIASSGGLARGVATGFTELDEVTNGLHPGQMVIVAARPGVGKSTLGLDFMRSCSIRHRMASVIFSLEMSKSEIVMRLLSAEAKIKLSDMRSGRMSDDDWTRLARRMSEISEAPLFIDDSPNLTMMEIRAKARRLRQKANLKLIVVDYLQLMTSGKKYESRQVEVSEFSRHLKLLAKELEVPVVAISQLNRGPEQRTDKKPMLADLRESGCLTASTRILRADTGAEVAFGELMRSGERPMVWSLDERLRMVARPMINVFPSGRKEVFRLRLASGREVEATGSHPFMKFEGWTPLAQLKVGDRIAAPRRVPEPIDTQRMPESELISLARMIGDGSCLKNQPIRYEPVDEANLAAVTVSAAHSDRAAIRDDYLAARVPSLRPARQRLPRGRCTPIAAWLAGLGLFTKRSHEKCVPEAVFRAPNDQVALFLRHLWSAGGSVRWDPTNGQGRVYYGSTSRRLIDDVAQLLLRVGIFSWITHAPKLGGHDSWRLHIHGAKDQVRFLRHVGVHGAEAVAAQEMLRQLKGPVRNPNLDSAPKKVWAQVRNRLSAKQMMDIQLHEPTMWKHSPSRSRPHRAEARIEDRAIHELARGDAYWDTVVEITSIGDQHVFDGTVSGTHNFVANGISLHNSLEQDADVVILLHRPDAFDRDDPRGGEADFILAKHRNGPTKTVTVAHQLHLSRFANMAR

Genome polyprotein = Genome polyprotein (dengue virus type 2, UniProt P29990); assay: Dengue-2 NS5 methyltransferase inhibitors, primary screen, biochemical, confirmation dose response (AID 588689); assay type: functional
[16] = molecular target: Envelope glycoprotein gp160 (Human immunodeficiency virus 1, UniProt Q6QLK5); assay: inhibitors of HIV fusion peptide binding, primary screen, biochemical, uHTS, fluorescence dequenching (AID 1986)
Cytochrome P450 3A4 = Cytochrome P450 3A4 (Homo sapiens, UniProt P08684); details: Potency;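 also: confirmatory qHTS run detecting inhibitors and substrates of CYP3A4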
[17] = Cytotoxicity screening for potential Inhibitors of Bacterial Capsule Biogenesis. [Related pubchem assays (depositor defined):AID488970]; assay type: functional
[18] = blockers of SFLLRN-triggered platelet ATP secretion – cell-based, human platelets, luminescence, dry powder, dose response (AID 493100); assay type: functional

T4 sequence (Q9UBE0 whole entry): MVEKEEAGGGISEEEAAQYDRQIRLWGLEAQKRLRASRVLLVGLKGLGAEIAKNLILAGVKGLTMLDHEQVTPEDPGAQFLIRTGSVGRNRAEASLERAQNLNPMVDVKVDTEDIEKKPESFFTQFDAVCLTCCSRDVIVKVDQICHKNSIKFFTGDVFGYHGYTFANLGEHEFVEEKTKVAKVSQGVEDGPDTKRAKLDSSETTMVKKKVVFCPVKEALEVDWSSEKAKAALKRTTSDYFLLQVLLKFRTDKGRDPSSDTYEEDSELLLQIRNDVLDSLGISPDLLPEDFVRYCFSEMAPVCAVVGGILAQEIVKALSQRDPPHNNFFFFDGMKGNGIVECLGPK
T4 sequence (Q9UBT2 whole entry): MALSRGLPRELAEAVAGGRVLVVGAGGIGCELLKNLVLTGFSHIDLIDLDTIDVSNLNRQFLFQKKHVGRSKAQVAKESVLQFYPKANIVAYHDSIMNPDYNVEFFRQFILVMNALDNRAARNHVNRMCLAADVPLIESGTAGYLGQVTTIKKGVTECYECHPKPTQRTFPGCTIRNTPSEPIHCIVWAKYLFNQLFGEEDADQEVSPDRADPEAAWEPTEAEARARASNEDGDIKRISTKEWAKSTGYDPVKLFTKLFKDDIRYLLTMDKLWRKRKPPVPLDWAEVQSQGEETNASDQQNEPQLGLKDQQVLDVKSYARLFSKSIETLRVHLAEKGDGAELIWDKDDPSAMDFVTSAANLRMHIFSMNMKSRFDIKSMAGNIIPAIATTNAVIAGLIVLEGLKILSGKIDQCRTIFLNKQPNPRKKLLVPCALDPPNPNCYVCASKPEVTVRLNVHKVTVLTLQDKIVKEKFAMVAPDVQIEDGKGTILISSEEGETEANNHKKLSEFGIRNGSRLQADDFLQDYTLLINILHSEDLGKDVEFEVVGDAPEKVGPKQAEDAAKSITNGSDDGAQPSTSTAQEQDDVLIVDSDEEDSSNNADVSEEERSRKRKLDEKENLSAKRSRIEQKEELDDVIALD
Sequence of Envelope glycoprotein gp160 (Q6QLK5 whole entry, the tested form may be a part): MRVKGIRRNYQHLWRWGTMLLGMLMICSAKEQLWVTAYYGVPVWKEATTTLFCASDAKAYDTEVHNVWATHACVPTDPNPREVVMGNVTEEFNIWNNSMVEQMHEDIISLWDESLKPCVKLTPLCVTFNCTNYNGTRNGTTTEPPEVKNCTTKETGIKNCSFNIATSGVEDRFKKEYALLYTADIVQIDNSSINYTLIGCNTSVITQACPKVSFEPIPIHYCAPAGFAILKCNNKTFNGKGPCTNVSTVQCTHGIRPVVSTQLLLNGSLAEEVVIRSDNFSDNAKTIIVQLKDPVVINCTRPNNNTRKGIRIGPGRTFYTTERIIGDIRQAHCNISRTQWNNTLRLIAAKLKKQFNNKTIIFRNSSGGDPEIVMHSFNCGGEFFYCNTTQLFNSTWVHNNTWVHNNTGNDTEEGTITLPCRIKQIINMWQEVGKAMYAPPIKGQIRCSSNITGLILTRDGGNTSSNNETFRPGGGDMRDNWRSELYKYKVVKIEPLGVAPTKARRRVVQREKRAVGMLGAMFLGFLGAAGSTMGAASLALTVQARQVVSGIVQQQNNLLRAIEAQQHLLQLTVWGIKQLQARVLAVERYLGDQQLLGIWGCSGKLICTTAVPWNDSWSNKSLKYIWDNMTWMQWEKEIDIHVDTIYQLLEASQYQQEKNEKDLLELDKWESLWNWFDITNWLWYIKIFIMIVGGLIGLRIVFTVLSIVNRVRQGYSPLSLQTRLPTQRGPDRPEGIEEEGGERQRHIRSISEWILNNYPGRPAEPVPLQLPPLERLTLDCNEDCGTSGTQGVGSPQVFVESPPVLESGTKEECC
Sequence of Nucleotide-binding oligomerization domain-containing protein 2 (Q9HC29 whole entry, the tested form may be a part): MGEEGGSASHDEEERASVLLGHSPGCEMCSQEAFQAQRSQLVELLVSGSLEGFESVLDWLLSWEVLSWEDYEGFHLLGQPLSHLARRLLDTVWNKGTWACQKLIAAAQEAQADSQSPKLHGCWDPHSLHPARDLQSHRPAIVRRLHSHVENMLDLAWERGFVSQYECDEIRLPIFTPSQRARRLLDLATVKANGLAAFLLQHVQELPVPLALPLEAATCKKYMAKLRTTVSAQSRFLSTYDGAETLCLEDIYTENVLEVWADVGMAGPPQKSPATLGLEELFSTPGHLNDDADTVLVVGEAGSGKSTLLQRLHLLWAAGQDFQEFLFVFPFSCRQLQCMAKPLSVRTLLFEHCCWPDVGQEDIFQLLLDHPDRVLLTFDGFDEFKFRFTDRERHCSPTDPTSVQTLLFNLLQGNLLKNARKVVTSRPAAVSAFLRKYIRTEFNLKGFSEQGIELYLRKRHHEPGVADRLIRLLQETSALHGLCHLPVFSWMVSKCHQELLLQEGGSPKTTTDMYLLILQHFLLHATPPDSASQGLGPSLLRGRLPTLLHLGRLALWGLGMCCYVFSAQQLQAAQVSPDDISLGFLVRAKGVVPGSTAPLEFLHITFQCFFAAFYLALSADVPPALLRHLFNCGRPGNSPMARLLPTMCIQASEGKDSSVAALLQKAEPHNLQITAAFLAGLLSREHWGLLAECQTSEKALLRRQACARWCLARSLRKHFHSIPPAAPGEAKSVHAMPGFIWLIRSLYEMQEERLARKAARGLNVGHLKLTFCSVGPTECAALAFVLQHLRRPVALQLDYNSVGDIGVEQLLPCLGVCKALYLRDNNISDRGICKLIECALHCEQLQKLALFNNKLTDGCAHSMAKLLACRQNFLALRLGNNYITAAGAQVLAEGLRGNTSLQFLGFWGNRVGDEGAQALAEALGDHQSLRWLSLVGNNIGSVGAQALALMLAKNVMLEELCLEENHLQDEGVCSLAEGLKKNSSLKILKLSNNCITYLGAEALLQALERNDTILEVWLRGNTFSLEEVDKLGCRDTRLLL
Sequence of Genome polyprotein (P29990 2492-3391 limits assumed): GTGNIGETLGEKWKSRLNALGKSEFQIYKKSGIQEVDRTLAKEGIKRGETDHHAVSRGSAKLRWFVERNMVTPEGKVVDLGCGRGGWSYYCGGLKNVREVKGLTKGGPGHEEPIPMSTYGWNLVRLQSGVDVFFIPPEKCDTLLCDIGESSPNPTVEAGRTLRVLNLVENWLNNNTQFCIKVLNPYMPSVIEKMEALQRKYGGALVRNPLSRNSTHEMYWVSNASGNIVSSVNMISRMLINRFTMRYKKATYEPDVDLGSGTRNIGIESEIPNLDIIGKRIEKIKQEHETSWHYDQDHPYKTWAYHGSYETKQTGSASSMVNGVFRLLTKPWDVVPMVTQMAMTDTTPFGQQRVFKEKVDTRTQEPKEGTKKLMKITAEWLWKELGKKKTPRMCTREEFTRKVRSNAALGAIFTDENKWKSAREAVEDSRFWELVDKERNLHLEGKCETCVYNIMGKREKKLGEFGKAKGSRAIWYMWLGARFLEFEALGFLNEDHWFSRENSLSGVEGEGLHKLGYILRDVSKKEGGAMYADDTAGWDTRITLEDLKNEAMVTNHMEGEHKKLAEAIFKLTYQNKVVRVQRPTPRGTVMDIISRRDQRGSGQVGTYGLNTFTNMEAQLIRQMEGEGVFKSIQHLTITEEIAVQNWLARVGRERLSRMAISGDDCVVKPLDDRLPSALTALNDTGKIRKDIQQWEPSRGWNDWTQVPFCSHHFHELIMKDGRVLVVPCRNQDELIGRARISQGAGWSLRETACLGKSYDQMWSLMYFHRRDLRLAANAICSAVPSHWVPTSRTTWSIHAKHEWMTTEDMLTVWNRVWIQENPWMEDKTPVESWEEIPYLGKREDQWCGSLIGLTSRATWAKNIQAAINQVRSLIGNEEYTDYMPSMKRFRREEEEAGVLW
Sequence of Cytochrome P450 3A4 (P08684 whole entry): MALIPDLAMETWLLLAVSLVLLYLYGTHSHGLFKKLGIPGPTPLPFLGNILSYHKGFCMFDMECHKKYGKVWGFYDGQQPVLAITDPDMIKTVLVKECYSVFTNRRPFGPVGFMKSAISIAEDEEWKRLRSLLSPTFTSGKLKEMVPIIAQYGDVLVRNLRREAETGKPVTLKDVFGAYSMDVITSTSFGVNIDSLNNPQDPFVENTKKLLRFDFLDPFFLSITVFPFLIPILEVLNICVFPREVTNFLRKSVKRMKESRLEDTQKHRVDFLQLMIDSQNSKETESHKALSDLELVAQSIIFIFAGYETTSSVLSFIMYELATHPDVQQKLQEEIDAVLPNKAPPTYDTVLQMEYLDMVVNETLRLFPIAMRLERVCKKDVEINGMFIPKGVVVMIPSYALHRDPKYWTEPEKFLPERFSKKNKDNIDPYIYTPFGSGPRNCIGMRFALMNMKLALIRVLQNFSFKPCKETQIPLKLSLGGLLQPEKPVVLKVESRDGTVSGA

O=C(COc1ccc(F)cc1)Nc1nnc(-c2ccc3c(c2)OCO3)o1
EC50 [1]: 10 µM (active)

Cc1cccc(/C=N/NC(=O)c2cccc(Cl)c2)n1
EC50 [2]: 5.31 µM (active)

COc1ccc(-c2n(Cc3ccccc3)c3ccccc3[n+]2Cc2ccccc2)cc1
IC50 (HEK293 [3]): 3.69 µM (active) | EC50 [4]: > 38 µM (not active) | IC50 (HEK293 [5]): 11.7 µM (active) | EC50 [6]: 9.35 µM (active) | EC50 (HEK293 [7]): 4.23 µM (active) | IC50 (HEK293 [8]): 1.21 µM (active) | AC50 (INS1): 3.85 µM (active) | IC50 [9]: > 80 µM (inactive) | IC50 (HEK293 [10]): > 20 µM (inactive) | EC50 [11]: > 150 µM (inactive)

CCCCCc1c2c(cc(O)c1C(=O)O)OC(=O)c1c(cc(OC)cc1C(=O)CCCC)O2 [LOBARIC ACID]
EC50 (Protein RecA): 4.98 µM (active) | IC50 [12]: 11 µM (active) | IC50 (SUMO-activating enzyme [13]): 15.3 µM (active) | IC50 (SUMO-activating enzyme [14]): 6.52 µM (active) | AC50 [15]: 6.47 µM (active) | IC50 (Genome polyprotein): 32.2 µM (active) | IC50 [16]: 13.1 µM (active) | AC50 (Cytochrome P450 3A4): 25.1 µM (inconclusive)

Cc1ccc(C2c3c(oc4cc(C)c(C)cc4c3=O)C(=O)N2CCCN2CCOCC2)cc1 (configuration not stated)
CC50 [17]: 44.4 µM (active)

CCCC(=O)Nc1cccc(NC(=O)c2ccccc2F)c1
AC50 [18]: 31.5 µM (active)
